Usually IC50 stands for the concentration that gives 50% inhibition.

Bridge positions count the residues as written; N and C are the ends. Square brackets hold non-standard residues; d marks the D form. Peptide text beside a SMILES is read from it. * marks the point of attachment. Phe(3,4-F2) = N[C@@H](Cc1ccc(F)c(F)c1)C(=O)O; Bip = N[C@@H](Cc1ccc(-c2ccccc2)cc1)C(=O)O; Phe(3-Me) = Cc1cccc(C[C@H](N)C(=O)O)c1; Phe(4-F) = N[C@@H](Cc1ccc(F)cc1)C(=O)O; Val(3-OH) = CC(C)(O)[C@H](N)C(=O)O; 4Pal = N[C@@H](Cc1ccncc1)C(=O)O; Cha = N[C@@H](CC1CCCCC1)C(=O)O; Gly(cPr) = N[C@H](C(=O)O)C1CC1; aThr = C[C@H](O)[C@H](N)C(=O)O; Carboxymethyl = O=C(O)C*; Nle = CCCC[C@H](N)C(=O)O; Orn = NCCC[C@H](N)C(=O)O; Aun = NCCCCCCCCCCC(=O)O; Dab = NCC[C@H](N)C(=O)O; Abu = CC[C@H](N)C(=O)O; Dap = NC[C@H](N)C(=O)O

Here are results for twelve molecules from patent US20260022142A1, “MACROCYCLIC IMMUNOMODULATORS” (Bristol-Myers Squibb Company, priority 2022, published 2026).

This assay deals with T1, PD-1/PD-L1 interaction (PE-labeled human PD-L1-Ig binding to Jurkat cell line over-expressing human PD-1) (Homo sapiens, UniProt Q15116).
T1 construct: expressed in transfected cells; host or cells: Jurkat
T1 sequence (Q15116 25-288): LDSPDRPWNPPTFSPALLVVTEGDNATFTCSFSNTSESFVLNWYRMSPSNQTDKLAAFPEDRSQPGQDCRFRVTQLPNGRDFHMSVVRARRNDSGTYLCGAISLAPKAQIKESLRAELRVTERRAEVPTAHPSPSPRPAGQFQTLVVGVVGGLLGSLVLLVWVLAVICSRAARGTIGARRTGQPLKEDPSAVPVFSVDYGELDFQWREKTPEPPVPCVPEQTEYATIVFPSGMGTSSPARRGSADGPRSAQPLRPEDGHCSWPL
Put plainly: Jurkat-PD-1 Cell Binding High-Content Screening Assay (CBA). It counts as cell-based. The note with it: Jurkat cell line over-expressing human PD-1; PE-labeled PD-L1-Ig 20 nM final; read-out: Jurkat hPD1-PDL1 IC50. The gist of the method:
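Read-out is high-content imaging of cell-bound phycoerythrin-tagged PD-L1-Ig on fixed, Hoechst-counterstained Jurkat cells that over-express human PD-1. Compound exposure lasts 2 h at 37° C before the labeled ligand (20 nM final) is added for a further hour.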
As for `Cc1cccc(C[C@@H]2NC(=O)[C@H](CC(=O)O)NC(=O)[C@H](Cc3ccc(OCC(=O)O)cc3)NC(=O)[C@H]([C@H](C)O)NC(=O)CSC[C@@H](C(=O)N[C@@H](CCN)C(=O)NCCCCCCCCCCC(=O)O)NC(=O)[C@H](CO)NC(=O)[C@H](C(C)(C)O)NC(=O)[C@H](CC3CCCCC3)NC(=O)[C@H](CCN)NC(=O)[C@@H](CC(C)C)NC(=O)[C@H](CCCN)NC(=O)[C@H](Cc3ccc(OCC(=O)O)cc3)NC(=O)[C@H](Cc3ccc(-c4ccccc4)cc3)NC(=O)[C@H](Cc3ccc(OCC(=O)O)cc3)NC2=O)c1` [Compound 2205] ({CH2CO}-[aThr]Y(Carboxymethyl)D[Phe(3-Me)]Y(Carboxymethyl)[Bip]Y(Carboxymethyl)[Orn][dL][Dab][Cha][Val(3-OH)]SC[Dab][Aun]-OH; thioether N-14), the 50% inhibitory concentration (IC50) was 12.5 nM.

Consider `COC[C@@H]1NC(=O)CSC[C@@H](C(=O)N[C@@H](CCN)C(=O)NCCCCCCCCCCC(=O)O)NC(=O)[C@H](CO)NC(=O)[C@H](C(C)(C)O)NC(=O)[C@H](CC2CCCCC2)NC(=O)[C@H](CCN)NC(=O)[C@@H](CC(C)C)NC(=O)[C@H](CCCN)NC(=O)[C@H](Cc2ccc(OCC(=O)O)cc2)NC(=O)[C@H](Cc2ccc(-c3ccccc3)cc2)NC(=O)[C@H](Cc2ccc(OCC(=O)O)cc2)NC(=O)[C@H](Cc2cccc(C)c2)NC(=O)[C@H](CC(=O)O)NC(=O)[C@H](Cc2ccc(OCC(=O)O)cc2)NC1=O` [Compound 2207] ({CH2CO}-S(Me)Y(Carboxymethyl)D[Phe(3-Me)]Y(Carboxymethyl)[Bip]Y(Carboxymethyl)[Orn][dL][Dab][Cha][Val(3-OH)]SC[Dab][Aun]-OH; thioether N-14), for which the IC50 stood at 7.6 nM.

Consider `Cc1cccc(C[C@@H]2NC(=O)[C@H](CC(=O)O)NC(=O)[C@H](Cc3ccc(OCC(=O)O)cc3)NC(=O)[C@H]([C@@H](C)O)NC(=O)CSC[C@@H](C(=O)N[C@@H](CCN)C(=O)NCCCCCCCCCCC(=O)O)NC(=O)[C@H](CO)NC(=O)[C@H](C(C)(C)O)NC(=O)[C@H](CC3CCCCC3)NC(=O)[C@H](CCN)NC(=O)[C@@H](CC(C)C)NC(=O)[C@H](CCCN)NC(=O)[C@H](Cc3ccc(OCC(=O)O)cc3)NC(=O)[C@H](Cc3ccc(-c4ccccc4)cc3)NC(=O)[C@H](Cc3ccc(OCC(=O)O)cc3)NC2=O)c1` [Compound 2208] ({CH2CO}-TY(Carboxymethyl)D[Phe(3-Me)]Y(Carboxymethyl)[Bip]Y(Carboxymethyl)[Orn][dL][Dab][Cha][Val(3-OH)]SC[Dab][Aun]-OH; thioether N-14), for which the IC50 is 14 nM.

As to `Cc1cccc(C[C@@H]2NC(=O)[C@H](CC(=O)O)NC(=O)[C@H](Cc3ccc(OCC(=O)O)cc3)NC(=O)CNC(=O)CSC[C@@H](C(=O)N[C@@H](CCN)C(=O)NCCCCCCCCCCC(=O)O)NC(=O)[C@H](CO)NC(=O)[C@H](C(C)(C)O)NC(=O)[C@H](CC3CCCCC3)NC(=O)[C@H](CCN)NC(=O)[C@@H](CC(C)C)NC(=O)[C@H](CCCN)NC(=O)[C@H](Cc3ccc(OCC(=O)O)cc3)NC(=O)[C@H](Cc3ccc(-c4ccccc4)cc3)NC(=O)[C@H](Cc3ccc(OCC(=O)O)cc3)NC2=O)c1` [Compound 2209] ({CH2CO}-GY(Carboxymethyl)D[Phe(3-Me)]Y(Carboxymethyl)[Bip]Y(Carboxymethyl)[Orn][dL][Dab][Cha][Val(3-OH)]SC[Dab][Aun]-OH; thioether N-14), the IC50 worked out at 45.5 nM.

In the case of `CCCC[C@@H]1NC(=O)CSC[C@@H](C(=O)N[C@@H](CCN)C(=O)NCCCCCCCCCCC(=O)O)NC(=O)[C@H](CO)NC(=O)[C@H](C(C)(C)O)NC(=O)[C@H](CC2CCCCC2)NC(=O)[C@H](CCN)NC(=O)[C@@H](CC(C)C)NC(=O)[C@H](CCCN)NC(=O)[C@H](Cc2ccc(OCC(=O)O)cc2)NC(=O)[C@H](Cc2ccc(-c3ccccc3)cc2)NC(=O)[C@H](Cc2ccc(OCC(=O)O)cc2)NC(=O)[C@H](Cc2cccc(C)c2)NC(=O)[C@H](CC(=O)O)NC(=O)[C@H](Cc2ccc(OCC(=O)O)cc2)NC1=O` [Compound 2210] ({CH2CO}-[Nle]Y(Carboxymethyl)D[Phe(3-Me)]Y(Carboxymethyl)[Bip]Y(Carboxymethyl)[Orn][dL][Dab][Cha][Val(3-OH)]SC[Dab][Aun]-OH; thioether N-14), the half-inhibitory concentration (IC50) is 8.8 nM.

For the molecule `Cc1cccc(C[C@@H]2NC(=O)[C@H](CC(=O)O)NC(=O)[C@H](Cc3ccc(OCC(=O)O)cc3)NC(=O)[C@H](C3CC3)NC(=O)CSC[C@@H](C(=O)N[C@@H](CCN)C(=O)NCCCCCCCCCCC(=O)O)NC(=O)[C@H](CO)NC(=O)[C@H](C(C)(C)O)NC(=O)[C@H](CC3CCCCC3)NC(=O)[C@H](CCN)NC(=O)[C@@H](CC(C)C)NC(=O)[C@H](CCCN)NC(=O)[C@H](Cc3ccc(OCC(=O)O)cc3)NC(=O)[C@H](Cc3ccc(-c4ccccc4)cc3)NC(=O)[C@H](Cc3ccc(OCC(=O)O)cc3)NC2=O)c1` [Compound 2211] ({CH2CO}-[Gly(cPr)]Y(Carboxymethyl)D[Phe(3-Me)]Y(Carboxymethyl)[Bip]Y(Carboxymethyl)[Orn][dL][Dab][Cha][Val(3-OH)]SC[Dab][Aun]-OH; thioether N-14), the IC50 turned out to be 9 nM.

`Cc1cccc(C[C@@H]2NC(=O)[C@H](CC(=O)O)NC(=O)[C@H](Cc3ccc(OCC(=O)O)cc3)NC(=O)[C@H](CCCN)NC(=O)CSC[C@@H](C(=O)N[C@@H](CCN)C(=O)NCCCCCCCCCCC(=O)O)NC(=O)[C@H](CO)NC(=O)[C@H](C(C)(C)O)NC(=O)[C@H](CC3CCCCC3)NC(=O)[C@H](CCN)NC(=O)[C@@H](CC(C)C)NC(=O)[C@H](CCCN)NC(=O)[C@H](Cc3ccc(OCC(=O)O)cc3)NC(=O)[C@H](Cc3ccc(-c4ccccc4)cc3)NC(=O)[C@H](Cc3ccc(OCC(=O)O)cc3)NC2=O)c1` [Compound 2212] ({CH2CO}-[Orn]Y(Carboxymethyl)D[Phe(3-Me)]Y(Carboxymethyl)[Bip]Y(Carboxymethyl)[Orn][dL][Dab][Cha][Val(3-OH)]SC[Dab][Aun]-OH; thioether N-14): the half-inhibitory concentration (IC50) amounted to 10 nM.

As to `Cc1cccc(C[C@@H]2NC(=O)[C@H](CC(=O)O)NC(=O)[C@H](Cc3ccc(OCC(=O)O)cc3)NC(=O)[C@H](CN)NC(=O)CSC[C@@H](C(=O)N[C@@H](CCN)C(=O)NCCCCCCCCCCC(=O)O)NC(=O)[C@H](CO)NC(=O)[C@H](C(C)(C)O)NC(=O)[C@H](CC3CCCCC3)NC(=O)[C@H](CCN)NC(=O)[C@@H](CC(C)C)NC(=O)[C@H](CCCN)NC(=O)[C@H](Cc3ccc(OCC(=O)O)cc3)NC(=O)[C@H](Cc3ccc(-c4ccccc4)cc3)NC(=O)[C@H](Cc3ccc(OCC(=O)O)cc3)NC2=O)c1` [Compound 2213] ({CH2CO}-[Dap]Y(Carboxymethyl)D[Phe(3-Me)]Y(Carboxymethyl)[Bip]Y(Carboxymethyl)[Orn][dL][Dab][Cha][Val(3-OH)]SC[Dab][Aun]-OH; thioether N-14), the half-inhibitory concentration (IC50) was 11 nM.

For `CC[C@@H]1NC(=O)CSC[C@@H](C(=O)N[C@@H](CCN)C(=O)NCCCCCCCCCCC(=O)O)NC(=O)[C@H](CO)NC(=O)[C@H](C(C)(C)O)NC(=O)[C@H](CC2CCCCC2)NC(=O)[C@H](CCN)NC(=O)[C@@H](CC(C)C)NC(=O)[C@H](CCCN)NC(=O)[C@H](Cc2ccc(OCC(=O)O)cc2)NC(=O)[C@H](Cc2ccc(-c3ccccc3)cc2)NC(=O)[C@H](Cc2ccc(OCC(=O)O)cc2)NC(=O)[C@H](Cc2cccc(C)c2)NC(=O)[C@H](CC(=O)O)NC(=O)[C@H](Cc2ccc(OCC(=O)O)cc2)NC1=O` [Compound 2214] ({CH2CO}-[Abu]Y(Carboxymethyl)D[Phe(3-Me)]Y(Carboxymethyl)[Bip]Y(Carboxymethyl)[Orn][dL][Dab][Cha][Val(3-OH)]SC[Dab][Aun]-OH; thioether N-14), the 50% inhibitory concentration (IC50) stood at 8 nM.

On to `Cc1cccc(C[C@@H]2NC(=O)[C@H](CC(=O)O)NC(=O)[C@H](Cc3ccc(OCC(=O)O)cc3)NC(=O)[C@H](Cc3ccncc3)NC(=O)CSC[C@@H](C(=O)N[C@@H](CCN)C(=O)NCCCCCCCCCCC(=O)O)NC(=O)[C@H](CO)NC(=O)[C@H](C(C)(C)O)NC(=O)[C@H](CC3CCCCC3)NC(=O)[C@H](CCN)NC(=O)[C@@H](CC(C)C)NC(=O)[C@H](CCCN)NC(=O)[C@H](Cc3ccc(OCC(=O)O)cc3)NC(=O)[C@H](Cc3ccc(-c4ccccc4)cc3)NC(=O)[C@H](Cc3ccc(OCC(=O)O)cc3)NC2=O)c1` [Compound 2215] ({CH2CO}-[4Pal]Y(Carboxymethyl)D[Phe(3-Me)]Y(Carboxymethyl)[Bip]Y(Carboxymethyl)[Orn][dL][Dab][Cha][Val(3-OH)]SC[Dab][Aun]-OH; thioether N-14), for which the 50% inhibitory concentration (IC50) came out at 12.8 nM.

For `Cc1cccc(C[C@@H]2NC(=O)[C@H](CC(=O)O)NC(=O)[C@H](Cc3ccc(OCC(=O)O)cc3)NC(=O)[C@H](Cc3ccc(F)cc3)NC(=O)CSC[C@@H](C(=O)N[C@@H](CCN)C(=O)NCCCCCCCCCCC(=O)O)NC(=O)[C@H](CO)NC(=O)[C@H](C(C)(C)O)NC(=O)[C@H](CC3CCCCC3)NC(=O)[C@H](CCN)NC(=O)[C@@H](CC(C)C)NC(=O)[C@H](CCCN)NC(=O)[C@H](Cc3ccc(OCC(=O)O)cc3)NC(=O)[C@H](Cc3ccc(-c4ccccc4)cc3)NC(=O)[C@H](Cc3ccc(OCC(=O)O)cc3)NC2=O)c1` [Compound 2216] ({CH2CO}-[Phe(4-F)]Y(Carboxymethyl)D[Phe(3-Me)]Y(Carboxymethyl)[Bip]Y(Carboxymethyl)[Orn][dL][Dab][Cha][Val(3-OH)]SC[Dab][Aun]-OH; thioether N-14), the IC50 amounted to 36.7 nM.

For `Cc1cccc(C[C@@H]2NC(=O)[C@H](CC(=O)O)NC(=O)[C@H](Cc3ccc(OCC(=O)O)cc3)NC(=O)[C@H](Cc3ccc(F)c(F)c3)NC(=O)CSC[C@@H](C(=O)N[C@@H](CCN)C(=O)NCCCCCCCCCCC(=O)O)NC(=O)[C@H](CO)NC(=O)[C@H](C(C)(C)O)NC(=O)[C@H](CC3CCCCC3)NC(=O)[C@H](CCN)NC(=O)[C@@H](CC(C)C)NC(=O)[C@H](CCCN)NC(=O)[C@H](Cc3ccc(OCC(=O)O)cc3)NC(=O)[C@H](Cc3ccc(-c4ccccc4)cc3)NC(=O)[C@H](Cc3ccc(OCC(=O)O)cc3)NC2=O)c1` [Compound 2217] ({CH2CO}-[Phe(3,4-F2)]Y(Carboxymethyl)D[Phe(3-Me)]Y(Carboxymethyl)[Bip]Y(Carboxymethyl)[Orn][dL][Dab][Cha][Val(3-OH)]SC[Dab][Aun]-OH; thioether N-14), the half-maximal inhibitory concentration (IC50) was determined as 27.9 nM.
